The source of these data is patent US11400059B2, “Treatment of pain and/or pain related symptoms associated with dysmenorrhea” (ALYRA BIOTECH PTY LTD, priority 2017, dated 2022).

One data set deals with T1, Human Dectin-1b (Homo sapiens, UniProt Q9BXN2).
T1 construct: expressed in transfected cells; host or cells: HEK293
T1 sequence (Q9BXN2 1-201 isoform Q9BXN2-2): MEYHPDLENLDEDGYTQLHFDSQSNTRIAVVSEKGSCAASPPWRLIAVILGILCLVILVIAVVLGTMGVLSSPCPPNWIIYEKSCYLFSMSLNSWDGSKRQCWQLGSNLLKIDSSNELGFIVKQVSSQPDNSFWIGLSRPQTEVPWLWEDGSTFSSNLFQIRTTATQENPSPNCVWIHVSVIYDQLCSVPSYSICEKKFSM
Kind of data set: Human CLR antagonist screening, NF-κB SEAP reporter in HEK293 cells. It is filed as cell-based. The following applies: antagonist mode, Ami 1 μM. Here is the method:
(§1) Toll-Like Receptor (TLR), NOD-Like Receptor (NLR) and C-Type Lectin Receptor (CLR) stimulation were tested by assessing NF-κB activation in HEK293 cells expressing a given TLR, NLR or CLR. The activity of the test articles was tested at one concentration and compared to control ligands. These steps were performed in triplicate. hDectin-1a and hDectin-1b: WGP Soluble (0-glucan from S. cerevisiae) at 10 ng/mL Antagonist: 5 ng/mL. Curdlan at 100 μg/mL. Antagonist: 100 μg/mL. Zymosan Depleted (hot alkali treated S. cerevisiae) at 5 μg/mL Antagonist: 3 μg/mL. In a 96-well plate (200 μL total volume) containing the appropriate cells (50,000-75,000 cells/well), 20 μL of the test article or the positive control ligand was added to the wells. For the antagonist assay, the test article was incubated with the cells, at 37° C. with 5% CO2, for 30 minutes prior to the addition of the positive control ligand to the wells. The media added to the wells was designed for the detection of NF-κB induced SEAP expression. After a 16-24 hr incubation the optical density (OD) was read at 650 nm on a Molecular Devices SpectraMax 340PC absorbance detector. Fold induction (ratio of average induced value to average non-induced value) was determined for each TLR, NOD1, NOD2, Dectin-1a, Dectin-1b.

A further data set has as its target T2, Human Dectin-1a (Homo sapiens, UniProt Q9BXN2).
T2 construct: expressed in transfected cells; host or cells: HEK293
T2 sequence (Q9BXN2 1-247): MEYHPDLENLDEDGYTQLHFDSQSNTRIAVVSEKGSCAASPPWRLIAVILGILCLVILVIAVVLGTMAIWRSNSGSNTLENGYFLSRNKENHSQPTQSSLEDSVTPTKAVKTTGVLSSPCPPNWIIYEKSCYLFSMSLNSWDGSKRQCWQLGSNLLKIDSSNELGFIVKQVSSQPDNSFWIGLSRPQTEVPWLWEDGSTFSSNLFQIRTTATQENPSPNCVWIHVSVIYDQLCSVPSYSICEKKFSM
Described as above. The format is cell-based. The settings on record: antagonist mode, Ami 1 μM. The procedure: as §1

For data set [1], the system named is spinal glial cells in the dorsal horn of the spinal cord. Kind of data set: Spinal glial activation (astrocytes and microglia) after intrauterine LPS, overall statements. It is filed as in vivo, mouse (Balb/C). The settings on record: for spinal glial activation induced by intrauterine LPS: intrauterine co-administration with LPS. The text has this: In the model, we investigated whether intrauterine LPS administration would cause an activation of the innate immune system in the uterus, replicating the inflammation often seen in dysmenorrhea, with possible association with pain. As inflammation is intrinsically linked with pain, we investigated whether activation of the innate immune system in the uterus would induce activation of spinal glial cells (central nervous system immune cells) in the dorsal horn of the spinal cord. Spinal glial cells include astrocytes and microglia. Activation of spinal glial cells was assessed using immunoflourescent staining with GFAP (astrocytes) or Iba1 (microglia). We then investigated if spinal glial activation is attenuated by the innate immune system blocking drugs amitriptyline and TAK-242.
Group 1 included twelve mice with 20 μl endotoxin-free saline introduced to the uterus on the first day of estrus and the subsequent day over 3 consecutive estrous cycles. Group 2 included twelve mice with LPS (100 μg/kg) instilled in the uterus on the first day of estrus and saline injected on the subsequent day over 3 consecutive estrous cycles. Group 3 included twelve mice with LPS (100 μg/kg) mixed with amitriptyline (20 μl of a 100 μM solution, equivalent to 28 μg/kg) instilled in the uterus on the first day of estrus, and amitriptyline alone instilled on the subsequent day over 3 consecutive estrous cycles. Group 4 included 14 mice with LPS (100 μg/kg) mixed with TAK-242 (20 μl of a 100 μM solution, equivalent to 36 μg/kg) instilled on the first day of estrus and TAK-242 alone instilled on the subsequent day over 3 consecutive estrous cycles.
Determination of spinal glial response was then assessed using immunofluorescence to confirm the validity of the experimental model.
Determination of the ability of TLR4 antagonists to block the activation of spinal astrocytes and microglia induced by intra-uterine instillation of LPS was assessed.
An assessment of glial activation was made using immunochemistry techniques including Ionized calcium binding adaptor molecule 1 (Iba1) expression and glial fibrillary-associated protein (GFAP) variability in the dorsal horn. Iba1 expression is a marker for microglial activation, and GFAP is a marker for astrocyte activation. The spinal cord levels chosen are consistent with the level of spinal afferent neurons associated with the pelvis, including the uterus in the mouse.

Turning to `CN(C)CCC=C1c2ccccc2CCc2ccccc21` [Amitriptyline], the “Fold Induction” value is recorded as 4 on Human Dectin-1b (+Curdlan 100 μg/mL, No Sample 4, Control− 1); 1 at Human Dectin-1b (+WGP Soluble 5 ng/mL, No Sample 1, Control− 1); “slight inhibitory effect” on Human Dectin-1b (+Zymosan Depleted 3 μg/mL, No Sample 7, Control− 1); 6 at Human Dectin-1b (+Zymosan Depleted 3 μg/mL, No Sample 7, Control− 1, listed as Ami); “slight inhibitory effect” on Human Dectin-1a (+Curdlan 100 μg/mL, No Sample 5, Control− 1); 4 on Human Dectin-1a (+Curdlan 100 μg/mL, No Sample 5, Control− 1, listed as Ami). The “Fold Induction” value at Human Dectin-1a (+WGP Soluble 5 ng/mL, No Sample 8, Control− 1) was 8; at Human Dectin-1a (+Zymosan Depleted 3 μg/mL, No Sample 6, Control− 1), “slight inhibitory effect”; on Human Dectin-1a (+Zymosan Depleted 3 μg/mL, No Sample 6, Control− 1, listed as Ami), 4. The “spinal glial activation induced by intrauterine LPS” value in data set [1] was “additional activity reducing spinal glial activation above TAK-242 alone”; in data set [1] (listed as amitriptyline) it was “prevented”. Besides, in data set [1] (mouse model, intrauterine administration), the “dose effective at reducing spinal glial activation” value came out at 0.027 mg/kg.
